From the kinase profiling compilation of Christmann-Franck et al. (2016)

Key:
Test in all cases: radiometric filter-binding kinase assay, Kinaseprofiler
[1] = target: JAK2 JH1 catalytic (human) (UniProt O60674); details: compound 1.0 µM; ATP 45 µM
ACVR1B (human) = ACVR1B (human) (UniProt P36896); details: compound 1.0 µM; ATP 10 µM
MAPKAPK3 (human) = MAPKAPK3 (human) (UniProt Q16644); details: compound 1.0 µM; ATP 90 µM
PIM1 (human) = PIM1 (human) (UniProt P11309); details: compound 1.0 µM; ATP 90 µM
[2] = system: SGK2 (human), Q9HBY8 [S416D]; details: compound 1.0 µM; ATP 15 µM
PRKX (human) = PRKX (human) (UniProt P51817); details: compound 1.0 µM; ATP 200 µM
ZAP70 (human) = ZAP70 (human) (UniProt P43403); details: compound 1.0 µM; ATP 15 µM
[3] = system: HIPK2 (human), Q9H2X6 [I471N]; details: compound 1.0 µM; ATP 10 µM
FLT3 (human) = FLT3 (human) (UniProt P36888); details: compound 1.0 µM; ATP 200 µM
[4] = system: SGK1 (human), O00141 [S422D]; details: compound 1.0 µM; ATP 90 µM
MAP3K5 (human) = MAP3K5 (human) (UniProt Q99683); details: compound 1.0 µM; ATP 200 µM
PAK7 (human) = PAK7 (human) (UniProt Q9P286); details: compound 1.0 µM; ATP 15 µM
[5] = system: MAPK9 (human), P45984 [S51N]; details: compound 1.0 µM; ATP 45 µM
CDC42BPA (human) = CDC42BPA (human) (UniProt Q5VT25); details: compound 1.0 µM; ATP 45 µM
NLK (human) = NLK (human) (UniProt Q9UBE8); details: compound 1.0 µM; ATP 200 µM
SYK (human) = SYK (human) (UniProt P43405); details: compound 1.0 µM; ATP 15 µM
FGFR2 (human) = FGFR2 (human) (UniProt P21802); details: compound 1.0 µM; ATP 90 µM
IRAK1 (human) = IRAK1 (human) (UniProt P51617); details: compound 1.0 µM; ATP 45 µM
[6] = system: AKT1 (human), P31749 [S478G]; details: compound 1.0 µM; ATP 155 µM

Sequence of ZAP70 (human) (P43403 whole entry, looked up): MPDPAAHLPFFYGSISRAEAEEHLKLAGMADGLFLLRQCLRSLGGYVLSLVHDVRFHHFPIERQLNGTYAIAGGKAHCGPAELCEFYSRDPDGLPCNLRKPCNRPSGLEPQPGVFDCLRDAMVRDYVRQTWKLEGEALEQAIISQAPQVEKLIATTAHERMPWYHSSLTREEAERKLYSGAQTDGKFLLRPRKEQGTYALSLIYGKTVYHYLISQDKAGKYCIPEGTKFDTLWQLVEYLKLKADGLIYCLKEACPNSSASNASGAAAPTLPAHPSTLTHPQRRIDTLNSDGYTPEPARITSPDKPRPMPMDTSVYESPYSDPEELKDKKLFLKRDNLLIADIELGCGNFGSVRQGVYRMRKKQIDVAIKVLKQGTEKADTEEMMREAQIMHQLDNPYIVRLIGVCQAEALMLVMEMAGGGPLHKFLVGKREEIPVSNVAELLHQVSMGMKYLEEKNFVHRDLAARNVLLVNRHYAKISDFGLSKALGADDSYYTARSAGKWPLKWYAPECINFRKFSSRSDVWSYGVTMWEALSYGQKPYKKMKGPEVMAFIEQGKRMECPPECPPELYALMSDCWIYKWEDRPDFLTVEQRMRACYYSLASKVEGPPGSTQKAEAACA
Sequence of CDC42BPA (human) (Q5VT25 whole entry, looked up): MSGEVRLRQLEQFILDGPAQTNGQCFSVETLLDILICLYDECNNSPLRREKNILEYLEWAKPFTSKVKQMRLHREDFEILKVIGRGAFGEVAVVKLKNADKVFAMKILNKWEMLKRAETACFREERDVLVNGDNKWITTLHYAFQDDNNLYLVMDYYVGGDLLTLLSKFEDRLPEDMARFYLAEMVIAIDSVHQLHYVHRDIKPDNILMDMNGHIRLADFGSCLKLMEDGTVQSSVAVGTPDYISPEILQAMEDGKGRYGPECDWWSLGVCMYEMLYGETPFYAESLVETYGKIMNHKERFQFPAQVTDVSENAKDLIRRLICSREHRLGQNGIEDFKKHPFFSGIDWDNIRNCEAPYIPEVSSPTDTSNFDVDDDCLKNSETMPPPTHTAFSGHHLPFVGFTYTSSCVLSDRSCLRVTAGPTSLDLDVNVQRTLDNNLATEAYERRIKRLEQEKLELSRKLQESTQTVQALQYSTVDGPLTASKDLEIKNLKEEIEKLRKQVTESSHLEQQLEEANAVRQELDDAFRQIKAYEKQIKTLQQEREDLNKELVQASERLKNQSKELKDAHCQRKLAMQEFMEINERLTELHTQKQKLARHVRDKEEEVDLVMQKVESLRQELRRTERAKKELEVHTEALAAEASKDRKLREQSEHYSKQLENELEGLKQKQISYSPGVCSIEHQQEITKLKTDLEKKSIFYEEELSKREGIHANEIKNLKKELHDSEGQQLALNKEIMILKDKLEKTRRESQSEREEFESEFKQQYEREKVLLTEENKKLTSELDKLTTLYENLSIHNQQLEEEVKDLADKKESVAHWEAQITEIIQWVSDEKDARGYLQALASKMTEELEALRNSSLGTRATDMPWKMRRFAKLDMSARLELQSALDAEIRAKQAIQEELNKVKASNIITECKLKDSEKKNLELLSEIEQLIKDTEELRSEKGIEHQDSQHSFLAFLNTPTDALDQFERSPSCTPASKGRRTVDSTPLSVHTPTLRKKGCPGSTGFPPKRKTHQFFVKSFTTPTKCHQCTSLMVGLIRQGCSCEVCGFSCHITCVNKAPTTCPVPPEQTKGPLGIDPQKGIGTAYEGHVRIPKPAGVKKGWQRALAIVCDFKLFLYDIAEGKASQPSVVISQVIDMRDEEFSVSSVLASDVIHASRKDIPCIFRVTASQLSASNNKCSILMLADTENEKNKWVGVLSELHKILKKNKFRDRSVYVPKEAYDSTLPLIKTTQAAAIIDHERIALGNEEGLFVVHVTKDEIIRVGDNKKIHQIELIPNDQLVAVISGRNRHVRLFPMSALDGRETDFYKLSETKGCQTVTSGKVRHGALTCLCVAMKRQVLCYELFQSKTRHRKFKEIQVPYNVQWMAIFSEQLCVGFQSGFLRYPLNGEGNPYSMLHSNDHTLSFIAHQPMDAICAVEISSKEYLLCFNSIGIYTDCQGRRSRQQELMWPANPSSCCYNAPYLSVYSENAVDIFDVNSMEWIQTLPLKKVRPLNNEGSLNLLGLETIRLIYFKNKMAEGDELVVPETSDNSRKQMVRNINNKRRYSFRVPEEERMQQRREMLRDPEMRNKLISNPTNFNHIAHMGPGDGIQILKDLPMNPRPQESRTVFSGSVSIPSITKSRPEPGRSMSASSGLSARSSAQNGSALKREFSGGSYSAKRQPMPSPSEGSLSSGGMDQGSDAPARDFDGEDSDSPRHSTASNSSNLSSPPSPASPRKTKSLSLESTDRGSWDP
Sequence of PAK7 (human) (Q9P286 whole entry, looked up): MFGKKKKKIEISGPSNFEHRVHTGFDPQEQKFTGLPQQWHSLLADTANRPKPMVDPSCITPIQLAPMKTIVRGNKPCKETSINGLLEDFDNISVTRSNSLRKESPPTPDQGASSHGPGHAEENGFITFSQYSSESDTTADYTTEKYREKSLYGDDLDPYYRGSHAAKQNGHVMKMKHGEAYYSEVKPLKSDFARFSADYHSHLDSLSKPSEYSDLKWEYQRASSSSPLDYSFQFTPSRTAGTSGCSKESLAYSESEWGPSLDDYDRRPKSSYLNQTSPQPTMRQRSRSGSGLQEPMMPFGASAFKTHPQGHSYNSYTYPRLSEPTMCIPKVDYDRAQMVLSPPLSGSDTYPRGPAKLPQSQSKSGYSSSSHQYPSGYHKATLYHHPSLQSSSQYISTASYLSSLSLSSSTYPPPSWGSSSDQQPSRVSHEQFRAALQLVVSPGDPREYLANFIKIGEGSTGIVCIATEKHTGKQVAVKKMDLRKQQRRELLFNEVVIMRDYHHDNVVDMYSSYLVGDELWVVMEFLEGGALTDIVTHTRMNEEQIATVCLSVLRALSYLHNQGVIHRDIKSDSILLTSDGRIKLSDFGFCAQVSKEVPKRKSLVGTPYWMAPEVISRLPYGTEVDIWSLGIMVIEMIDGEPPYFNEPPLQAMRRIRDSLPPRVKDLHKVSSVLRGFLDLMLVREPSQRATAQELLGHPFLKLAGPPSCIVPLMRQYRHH
Sequence of FGFR2 (human) (P21802 whole entry, looked up): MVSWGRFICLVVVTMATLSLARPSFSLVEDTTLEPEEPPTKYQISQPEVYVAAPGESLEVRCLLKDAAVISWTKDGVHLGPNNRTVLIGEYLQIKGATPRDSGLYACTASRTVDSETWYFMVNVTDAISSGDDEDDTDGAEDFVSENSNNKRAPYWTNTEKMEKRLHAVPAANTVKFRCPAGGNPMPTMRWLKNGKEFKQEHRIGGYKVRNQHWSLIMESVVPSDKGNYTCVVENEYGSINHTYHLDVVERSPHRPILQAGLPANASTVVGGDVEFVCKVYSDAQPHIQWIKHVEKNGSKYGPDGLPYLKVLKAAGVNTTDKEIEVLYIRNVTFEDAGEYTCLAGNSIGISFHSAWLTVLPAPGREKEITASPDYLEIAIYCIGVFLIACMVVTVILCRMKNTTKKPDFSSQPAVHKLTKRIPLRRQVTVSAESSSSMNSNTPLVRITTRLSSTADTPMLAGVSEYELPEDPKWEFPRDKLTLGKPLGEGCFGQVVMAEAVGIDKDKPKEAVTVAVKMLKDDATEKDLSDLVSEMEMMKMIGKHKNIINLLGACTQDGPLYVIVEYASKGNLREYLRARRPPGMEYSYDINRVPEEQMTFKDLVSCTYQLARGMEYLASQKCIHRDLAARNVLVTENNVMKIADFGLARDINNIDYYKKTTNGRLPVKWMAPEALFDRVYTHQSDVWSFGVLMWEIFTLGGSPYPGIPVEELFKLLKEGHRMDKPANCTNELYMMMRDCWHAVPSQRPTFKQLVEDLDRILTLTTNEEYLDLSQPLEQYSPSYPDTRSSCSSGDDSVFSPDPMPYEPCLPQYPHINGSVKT
Sequence of FLT3 (human) (P36888 whole entry, looked up): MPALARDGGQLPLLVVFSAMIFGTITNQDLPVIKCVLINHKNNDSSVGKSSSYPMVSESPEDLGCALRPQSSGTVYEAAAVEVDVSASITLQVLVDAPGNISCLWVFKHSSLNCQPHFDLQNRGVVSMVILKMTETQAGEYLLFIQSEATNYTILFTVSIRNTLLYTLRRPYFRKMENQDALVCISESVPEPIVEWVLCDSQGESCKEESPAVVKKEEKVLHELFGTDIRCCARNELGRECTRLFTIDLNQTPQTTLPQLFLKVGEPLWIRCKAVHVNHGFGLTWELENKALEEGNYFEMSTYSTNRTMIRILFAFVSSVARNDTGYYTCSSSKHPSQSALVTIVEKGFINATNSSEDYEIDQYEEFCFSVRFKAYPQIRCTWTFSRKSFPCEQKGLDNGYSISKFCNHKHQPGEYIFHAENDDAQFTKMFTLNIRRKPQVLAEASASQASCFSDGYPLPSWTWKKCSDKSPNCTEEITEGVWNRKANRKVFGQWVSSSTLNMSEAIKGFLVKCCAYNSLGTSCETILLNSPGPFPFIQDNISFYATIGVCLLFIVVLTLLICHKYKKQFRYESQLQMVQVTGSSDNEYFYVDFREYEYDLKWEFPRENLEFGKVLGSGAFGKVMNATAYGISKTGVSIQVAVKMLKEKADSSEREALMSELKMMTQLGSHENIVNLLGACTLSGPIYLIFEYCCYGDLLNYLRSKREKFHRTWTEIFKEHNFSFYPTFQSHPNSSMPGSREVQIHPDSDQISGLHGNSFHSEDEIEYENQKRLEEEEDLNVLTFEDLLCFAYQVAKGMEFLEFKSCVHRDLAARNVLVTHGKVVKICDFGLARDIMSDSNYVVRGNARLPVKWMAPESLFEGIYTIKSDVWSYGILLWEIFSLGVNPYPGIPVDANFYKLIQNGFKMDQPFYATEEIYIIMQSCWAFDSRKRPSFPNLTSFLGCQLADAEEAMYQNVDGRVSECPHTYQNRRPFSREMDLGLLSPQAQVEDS

residual activity [1]: 43%
residual activity (ACVR1B (human)): 100%
residual activity (MAPKAPK3 (human)): 102%
residual activity (PIM1 (human)): 101%
residual activity [2]: 114%
residual activity (PRKX (human)): -12%
residual activity (ZAP70 (human)): 127%
residual activity [3]: 94%
residual activity (FLT3 (human)): 26%
residual activity [4]: 96%
residual activity (MAP3K5 (human)): 98%
residual activity (PAK7 (human)): 101%
residual activity [5]: 88%
residual activity (CDC42BPA (human)): 107%
residual activity (NLK (human)): 103%
residual activity (SYK (human)): 94%
residual activity (FGFR2 (human)): 12%
residual activity (IRAK1 (human)): 83%
residual activity [6]: 109%
SMILES: CN(C)S(=O)(=O)Nc1ccc2ccc3ncc(-c4cnn(C)c4)cc3c(=O)c2c1
